In one experiment the test system is ERK. As to the kind of experiment: Western blot of ERK activation in HepG3 cells. The conditions noted are these: 24 h. Type of experiment: cell-based, human. As to the method: (§1) FIGS. 12A-F. Inhibition of CD44 and c-Met by SU11274 blocks LSF function. A. LSF-17 cells were treated with normal IgG or anti-CD44 antibody and then subjected to Matrigel invasion assay. (B, C) Cell viability (MTT) assay of LSF-17 (B) and QGY-7703 (C) cells treated with SU11274 (5 μM) for the indicated time period. (D, E) Matrigel invasion assays of LSF-17 (D) and QGY-7703 (E) cells treated with SU11274 (5 μM). For SU11274 removal, cells were treated with SU11274 for 24 h before seeding them in the invasion chamber in SU11274-free condition. For A-E, data represent mean±SEM. F. HepG3 cells were untreated or treated with OPN (100 ng/ml) and with SU11274 (5 μM) for 24 h and the expression of the indicated proteins were detected by Western blot analysis. Asterisk (*) represents statistically significant difference (p<0.05).
Preparation of whole cell lysates and Western blot analyses were performed as described (5). The primary antibodies used were anti-LSF (1:2,000; mouse monoclonal; BD Biosciences), anti-pERK (1:2,000; rabbit polyclonal; Cell Signaling), anti-ERK (1:2,000; rabbit polyclonal; Cell Signaling), anti-pAKT (1:1,000; rabbit polyclonal; Cell Signaling) and anti-AKT (1:1,000; rabbit polyclonal; Cell Signaling). Blots were stripped and normalized by re-probing with anti-β-tubulin (1:1,000; mouse monoclona; Sigma). […]
In general terms: Immunoblotting shows a protein as a band on a membrane.

For the next experiment, the system named is Akt. As to the kind of experiment: Western blot of Akt activation in HepG3 cells. Type of experiment: cell-based, human. The protocol: as §1
(§2) Preparation of whole cell lysates and Western blot analyses were performed as described (5). The primary antibodies used were anti-LSF (1:2,000; mouse monoclonal; BD Biosciences), anti-pERK (1:2,000; rabbit polyclonal; Cell Signaling), anti-ERK (1:2,000; rabbit polyclonal; Cell Signaling), anti-pAKT (1:1,000; rabbit polyclonal; Cell Signaling) and anti-AKT (1:1,000; rabbit polyclonal; Cell Signaling). Blots were stripped and normalized by re-probing with anti-β-tubulin (1:1,000; mouse monoclona; Sigma).
Treatment with OPN increased p-Akt/Akt ratio to 1.42 which was decreased to 0.63 upon SU11274 treatment.

In experiment [1] the test system is QGY-7703 cells. As to the kind of experiment: Matrigel invasion assay, QGY-7703 cells. In kind it is cell-based, human. The protocol: as §1
(§3) FIGS. 13A-F. Genetic inhibition of c-Met by shRNA blocks LSF function. […] A. Expression of the indicated proteins was detected in the indicated cells by Western blot analysis. […] D. QGY-7703 cells were transfected with control scrambled siRNA (siCon) or c-Met siRNA (siMet) and cell viability was measured by MTT assay. […] F. The expression of the indicated proteins was detected in the indicated cells by Western blot analysis. […]
(§4) Primary rat hepatocytes were isolated and cultured as described (19). […] Cell viability was determined by standard MTT assays as described (5). […]

The next experiment deals with parental HepG3 cells. As to the kind of experiment: Cell viability, parental HepG3 cells. In kind it is cell-based, human. The conditions noted are these: SU11274 treatment; data not shown. The protocol:
Primary rat hepatocytes were isolated and cultured as described (19). SNU-423 cells were obtained from ATCC and cultured as instructed. HepG3, QGY-7703, Hep3B, HuH7, Focus and HEK-293 cells were cultured as described (20). Cell viability was determined by standard MTT assays as described (5). Colony formation, anchorage-independent growth in soft agar and matrigel invasion assays were performed exactly as described (5). We next investigated the importance of c-Met activation in mediating LSF function. LSF-17 cells and QGY-7703 cells were treated with the chemical inhibitor of c-Met, SU11274 (5 μM), and cell viability and Matrigel invasion was monitored. […] For invasion assay cells were treated with SU11274 for 24 h, a time point when no significant effect on cell viability was observed.

In experiment [2] the test system is LSF-17 cells. As to the kind of experiment: Matrigel invasion assay, LSF-17 cells. In kind it is cell-based, human. The protocol:
FIGS. 8A-D. Inhibition of OPN abrogates LSF-induced tumorigenesis and metastasis. The indicated clones were subcutaneously implanted in athymic nude mice. A. Tumor volume and tumor weight were measured 3 weeks after implantation. B. Graphical representation of metastatic lung nodules in the animals injected with the LSF-17consh-15 and LSF-17-OPNsh-18 clones via tail vein. The data represent mean±SEM. Inset: H&E sections of lungs of animals injected with the indicated clones. C. Parental HepG3 cells were treated with conditioned media from Control-8 or LSF-17 clone of HepG3 cells and then subjected to matrigel invasion. D. Matrigel invasion assay using LSF17 clone of HepG3 cells in the presence of neutralizing antibodies. Integrin: anti-αvβ3 integrin antibody. […]
FIGS. 12A-F. Inhibition of CD44 and c-Met by SU11274 blocks LSF function. […] F. HepG3 cells were untreated or treated with OPN (100 ng/ml) and with SU11274 (5 μM) for 24 h and the expression of the indicated proteins were detected by Western blot analysis. […]
as §4
We next investigated the importance of c-Met activation in mediating LSF function. LSF-17 cells and QGY-7703 cells were treated with the chemical inhibitor of c-Met, SU11274 (5 μM), and cell viability and Matrigel invasion was monitored. […]

Experiment [3] relates to QGY-7703 cells. As to the kind of experiment: Cell viability by standard MTT assay, QGY-7703 cells. In kind it is cell-based, human. The settings on record: SU11274 5 μM. As to the method: as §1, §3, §4
(In general: Formazan colour is commonly taken as a measure of viable cells.)

The subject of experiment [4] is LSF-17 cells. As to the kind of experiment: Cell viability by standard MTT assay, LSF-17 cells. The conditions noted are these: SU11274 5 μM. In kind it is cell-based, human. The protocol: as §1, with “(p<0.05). Primary rat hepatocytes were isolated and cultured as described (19). SNU-423 cells were obtained from ATCC and cultured as instructed. HepG3, QGY-7703, Hep3B, HuH7, Focus and HEK-293 cells were cultured as described (20). Cell viability was determined by standard MTT assays as described (5). Colony formation, anchorage-independent growth in soft agar and matrigel invasion assays were performed exactly as described (5). […] LSF-17 cells and QGY-7703 cells were treated with the chemical inhibitor of c-Met, SU11274 (5 μM), and cell viability and Matrigel invasion was monitored. […]” for “(p<0.05).”

The next experiment deals with T1, c-Met (Homo sapiens, UniProt P08581).
T1 construct: endogenous in cells; host or cells: HepG3 cells; LSF-17 clone of HepG3 (stably overexpresses LSF, not c-Met)
T1 sequence (P08581 25-1390): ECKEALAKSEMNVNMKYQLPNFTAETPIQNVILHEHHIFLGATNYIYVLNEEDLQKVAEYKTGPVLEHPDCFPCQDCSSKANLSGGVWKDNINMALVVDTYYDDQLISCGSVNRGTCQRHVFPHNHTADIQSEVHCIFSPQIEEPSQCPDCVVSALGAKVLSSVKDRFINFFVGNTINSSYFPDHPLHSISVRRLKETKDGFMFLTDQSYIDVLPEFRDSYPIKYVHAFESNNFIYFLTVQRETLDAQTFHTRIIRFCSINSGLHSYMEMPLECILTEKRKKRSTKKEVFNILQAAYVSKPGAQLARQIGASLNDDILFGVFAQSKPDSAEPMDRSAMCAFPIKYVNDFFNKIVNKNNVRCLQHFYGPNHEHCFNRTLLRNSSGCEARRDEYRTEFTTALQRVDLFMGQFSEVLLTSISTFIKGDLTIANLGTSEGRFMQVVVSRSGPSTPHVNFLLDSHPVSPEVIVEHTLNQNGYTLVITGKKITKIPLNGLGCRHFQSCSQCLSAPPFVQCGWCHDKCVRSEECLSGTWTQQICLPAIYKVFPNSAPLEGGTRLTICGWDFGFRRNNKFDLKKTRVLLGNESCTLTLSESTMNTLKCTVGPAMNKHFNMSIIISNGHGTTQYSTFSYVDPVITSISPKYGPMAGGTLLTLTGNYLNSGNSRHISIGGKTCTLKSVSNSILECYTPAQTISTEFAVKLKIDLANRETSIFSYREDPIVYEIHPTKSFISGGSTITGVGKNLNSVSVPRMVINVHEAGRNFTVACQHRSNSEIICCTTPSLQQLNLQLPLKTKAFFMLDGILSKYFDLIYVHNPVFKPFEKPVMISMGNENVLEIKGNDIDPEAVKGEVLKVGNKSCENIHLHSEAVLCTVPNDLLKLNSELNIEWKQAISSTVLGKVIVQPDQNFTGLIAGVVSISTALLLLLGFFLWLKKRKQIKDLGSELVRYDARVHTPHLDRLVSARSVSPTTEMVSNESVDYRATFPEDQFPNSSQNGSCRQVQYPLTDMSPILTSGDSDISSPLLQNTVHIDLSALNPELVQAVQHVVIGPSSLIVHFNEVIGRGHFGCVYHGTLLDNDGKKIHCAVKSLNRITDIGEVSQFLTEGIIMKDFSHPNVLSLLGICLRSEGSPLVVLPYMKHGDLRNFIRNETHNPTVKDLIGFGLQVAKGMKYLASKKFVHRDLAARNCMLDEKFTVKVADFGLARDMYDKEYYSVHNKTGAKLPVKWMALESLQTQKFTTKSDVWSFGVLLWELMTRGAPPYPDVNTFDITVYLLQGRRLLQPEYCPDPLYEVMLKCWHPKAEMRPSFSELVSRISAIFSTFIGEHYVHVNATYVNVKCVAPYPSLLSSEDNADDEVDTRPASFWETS
As to the kind of experiment: Western blot of c-Met activation (p-c-Met) in HepG3 cells. In kind it is cell-based. The protocol: FIGS. 10A-D. OPN activates c-Met. A. HepG3 cells were treated with OPN (100 ng/ml) for the indicated time points and p-c-Met and total c-Met levels were analyzed by Western blot analysis. B. Expression of OPN and p-c-Met was determined by immunohistochemical analysis in FFPE sections of normal liver and matched HCC. A representative figure is shown from one patient. C. Statistical correlation between OPN and phospho-c-Met levels in 50 human HCC patients analyzed by Pearson's test. D. Left panel: LSF-17consh-15 (Consh-15) is a clone of LSF-17 cells that stably expresses control scrambled shRNA and LSF-17-OPNsh-6 (OPNsh-6) and LSF-17-OPNsh-18 (OPNsh-18) are clones of LSF-17 cells stably expressing OPN shRNA. The expression of the indicated proteins was detected by Western blot analysis. Right panel, LSF-17 clone of HepG3 cells were treated with normal IgG (mouse and rabbit; Santa Cruz), anti-αvβ3 integrin antibody (mouse; Millipore) or anti-CD44 antibody (rabbit; Santa Cruz) at a concentration of 20 μg/ml for 24 h and the expression of the indicated proteins was detected by Western blot analysis.
as §1, §2
To confirm the link between OPN and c-Met, HepG3 cells were treated with OPN (100 ng/ml) for 24 h in the presence or absence of SU11274. […] Treatment with OPN increased p-Akt/Akt ratio to 1.42 which was decreased to 0.63 upon SU11274 treatment.

A further experiment concerns the target T2, CD44 and c-Met (Homo sapiens, UniProt P16070).
T2 construct: endogenous in cells; host or cells: HepG3 cells (lysates)
As to the kind of experiment: Co-immunoprecipitation of CD44 and c-Met in HepG3 cells. In kind it is cell-based. As to the method: FIGS. 11A-E. OPN facilitates c-Met activation via CD44 receptor. A. Left panel, HepG3 cells were cultured in serum-free conditions. Right panel, HepG3 cells were cultured in serum-containing medium and untreated or treated with OPN (100 ng/ml) for 24 h. Cell lysates were subjected to immunoprecipitation by anti-c-Met antibody and immunoblotting with anti-CD44, anti-[…] integrin and anti-c-Met antibodies. B. The culture conditions are the same as in A. Immunoprecipitation was done with anti-CD44 antibody and immunoblotting was done with anti-c-Met and anti-CD44 antibody. C. HepG3 cell were cultured in serum-free conditions and then untreated or treated with OPN (100 ng/ml) for 24 h. Immunoprecipitation was done with anti-CD44 antibody and immunoblotting was done with anti-p-c-Met or anti-CD44 antibodies. D. Lysates from LSF-17 and QGY-7703 cells were subjected to immunoprecipitation by anti-c-Met antibody and immunoblotting by anti-CD44, anti-αvβ3 integrin and anti-c-Met antibodies. E. Lysates from LSF-17 and QGY-7703 cells were subjected to immunoprecipitation by anti-CD44 antibody and immunoblotting by anti-c-Met, anti-p-c-Met and anti-CD44 antibodies. The bottom panel serves as inputs for D and E. IgG was used as a control in all the experiments.
We next explored the molecular mechanism of c-Met activation by OPN using co-immunoprecipitation analysis. […]

Setting [5] is: co-treatment with SU11274 5 μM, 24 h.
Where [6] appears, read: treated 24 h, then SU11274-free during invasion assay.

T2 sequence (P16070 21-742): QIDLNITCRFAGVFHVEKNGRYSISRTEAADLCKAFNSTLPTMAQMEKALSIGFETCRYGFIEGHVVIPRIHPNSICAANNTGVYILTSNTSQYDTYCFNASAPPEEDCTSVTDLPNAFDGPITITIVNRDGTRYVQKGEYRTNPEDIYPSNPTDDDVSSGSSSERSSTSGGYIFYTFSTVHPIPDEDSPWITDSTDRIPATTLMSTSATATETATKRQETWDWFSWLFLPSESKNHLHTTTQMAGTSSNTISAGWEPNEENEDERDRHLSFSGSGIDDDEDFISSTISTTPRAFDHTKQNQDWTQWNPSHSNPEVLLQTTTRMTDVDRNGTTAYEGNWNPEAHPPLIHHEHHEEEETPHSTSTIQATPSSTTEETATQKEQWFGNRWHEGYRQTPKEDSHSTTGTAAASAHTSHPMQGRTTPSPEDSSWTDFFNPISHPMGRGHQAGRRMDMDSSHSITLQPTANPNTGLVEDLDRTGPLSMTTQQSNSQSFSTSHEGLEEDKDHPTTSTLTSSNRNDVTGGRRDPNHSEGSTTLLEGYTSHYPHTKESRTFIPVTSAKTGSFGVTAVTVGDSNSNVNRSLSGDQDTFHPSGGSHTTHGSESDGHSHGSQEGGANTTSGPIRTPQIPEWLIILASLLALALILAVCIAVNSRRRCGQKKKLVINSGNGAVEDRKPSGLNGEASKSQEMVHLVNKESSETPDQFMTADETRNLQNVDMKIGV
T2 sequence (P08581 308-1390 partner limits assumed): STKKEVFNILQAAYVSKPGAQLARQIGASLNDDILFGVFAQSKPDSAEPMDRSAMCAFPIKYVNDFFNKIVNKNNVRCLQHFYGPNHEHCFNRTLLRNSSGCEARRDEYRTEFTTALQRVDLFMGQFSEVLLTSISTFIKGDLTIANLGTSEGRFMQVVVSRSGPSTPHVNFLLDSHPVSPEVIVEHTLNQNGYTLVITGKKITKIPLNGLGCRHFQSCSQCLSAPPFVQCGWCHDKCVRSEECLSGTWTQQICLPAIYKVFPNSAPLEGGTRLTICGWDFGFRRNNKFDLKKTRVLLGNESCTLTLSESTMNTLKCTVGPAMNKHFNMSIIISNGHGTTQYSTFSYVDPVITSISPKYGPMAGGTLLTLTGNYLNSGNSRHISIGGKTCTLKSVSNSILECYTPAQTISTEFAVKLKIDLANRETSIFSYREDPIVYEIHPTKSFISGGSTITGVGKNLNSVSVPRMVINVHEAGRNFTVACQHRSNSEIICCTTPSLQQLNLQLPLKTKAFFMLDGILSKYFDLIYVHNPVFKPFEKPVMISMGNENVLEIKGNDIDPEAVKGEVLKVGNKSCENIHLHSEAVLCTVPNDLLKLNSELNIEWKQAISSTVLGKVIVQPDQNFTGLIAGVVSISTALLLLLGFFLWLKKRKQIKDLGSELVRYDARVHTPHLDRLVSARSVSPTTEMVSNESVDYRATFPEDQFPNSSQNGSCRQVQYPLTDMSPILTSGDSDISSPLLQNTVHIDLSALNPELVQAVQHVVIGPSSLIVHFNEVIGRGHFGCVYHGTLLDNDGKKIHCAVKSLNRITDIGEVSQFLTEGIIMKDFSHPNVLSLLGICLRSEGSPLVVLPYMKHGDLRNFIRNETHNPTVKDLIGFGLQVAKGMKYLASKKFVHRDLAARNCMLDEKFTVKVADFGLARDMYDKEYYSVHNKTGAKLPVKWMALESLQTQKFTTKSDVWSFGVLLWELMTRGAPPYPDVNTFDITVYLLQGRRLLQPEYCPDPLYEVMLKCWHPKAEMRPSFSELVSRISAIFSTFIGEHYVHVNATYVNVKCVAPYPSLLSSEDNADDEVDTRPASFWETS
T2 sequence (P08581 25-307 partner limits assumed): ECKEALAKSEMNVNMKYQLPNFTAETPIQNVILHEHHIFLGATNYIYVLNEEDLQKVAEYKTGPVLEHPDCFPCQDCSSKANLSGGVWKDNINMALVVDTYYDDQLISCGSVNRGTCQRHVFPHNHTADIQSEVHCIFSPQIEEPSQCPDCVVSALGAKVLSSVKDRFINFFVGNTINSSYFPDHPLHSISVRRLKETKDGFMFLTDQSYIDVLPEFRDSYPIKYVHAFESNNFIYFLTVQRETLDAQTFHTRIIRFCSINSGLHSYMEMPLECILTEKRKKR

In the case of `Cc1[nH]c(/C=C2\C(=O)Nc3ccc(S(=O)(=O)N(C)c4cccc(Cl)c4)cc32)c(C)c1C(=O)N1CCN(C)CC1` [SU11274], the “inhibition of basal and OPN-induced activation of ERK” value in the experiment with ERK (SU11274 5 μM) is recorded as “partial inhibition”. Also, the p-Akt/Akt ratio in the experiment with Akt (OPN 100 ng/ml plus SU11274, 24 h) amounted to 0.63; with Akt (SU11274 alone (basal), control group 0.58) it was 0.05. The “inhibition of basal and OPN-induced activation of Akt” value in the experiment on Akt (setting [5]) is on record as “significant inhibition”. The Matrigel invasion entry was “significantly inhibited” in the experiment with QGY-7703 cells [1] (SU11274 5 μM, 24 h) and “significantly inhibited” in the experiment on LSF-17 cells [2] (SU11274 5 μM, 24 h). Further, the “Matrigel invasion after removal of SU11274” value in the experiment on QGY-7703 cells [1] (setting [6]) and with LSF-17 cells [2] (setting [6]) was “significantly rescued the cells from inhibition of invasion” throughout. For the same compound, the “viability of parental HepG3 cells” value in the experiment on parental HepG3 cells is listed as “did not affect the viability”. The “cell viability (MTT)” value in the experiment with QGY-7703 cells [3] and in the experiment on LSF-17 cells [4] was “significantly decreased” throughout. Also, the “inhibition of basal and OPN-induced activation of c-Met” value on c-Met (setting [5]) is given as “significant inhibition”.
On to “OPN: purified osteopontin, a secreted protein, added to cells at 100 ng/ml”, for which, in the experiment on ERK (OPN 100 ng/ml), the “activation of ERK” value is on record as “significantly activated”. The “activation of Akt” value in the experiment with Akt (OPN 100 ng/ml, 24 h) was “significantly activated”. Further, in the experiment with Akt (OPN 100 ng/ml, 24 h, control group 0.58), the p-Akt/Akt ratio is reported as 1.42. In the experiment with c-Met (OPN 100 ng/ml, 24 h), the “activation of c-Met” value is recorded as “significantly activated”. Besides, in the experiment with c-Met (OPN treatment), the “total c-Met level” value is “did not change”. Further, in the experiment with c-Met (purified OPN 100 ng/ml), the “activated c-Met level at 6 h post-treatment” value is “remained higher than basal level” and the “time of peak level of c-Met activation post-treatment” value was found to be 30 min. Moreover, in the experiment with CD44 and c-Met (serum-containing culture, OPN 100 ng/ml), the “binding affinity between c-Met and CD44” value was “did not affect the binding affinity”. In the experiment with CD44 and c-Met (serum-free conditions, OPN 100 ng/ml 24 h), the “association between CD44 and phospho-c-Met” value is “significantly increased”.

These data come from patent US9283244B2, “Treatment of cancer by inhibiting activity or expression of late SV-40 factor” (Virginia Commonwealth University, priority 2010, dated 2016).
